Experimental data reported in patent US10507218B2, “Treatment of cardiovascular disease by using gallium compounds to bind calcified lesions” (LIPIDRISK, LLC, priority 2018, dated 2019).

Experiments:
[1] = set-up: dose or concentration left out as unconfirmed; details: of gallium nitrate over 5-7 days; cited from earlier work
[2] = Treatment of plantar fasciitis by topical gallium nitrate solution (single patient); format: in vivo, human
Method: The patient was having continuous severe pain from the plantar fasciitis for over six months after treatments with injected cortisone, special braces and hydrotherapy none of which gave relief.
Patient was treated with 5 ml's of 14% gallium nitrate solution applied to the bottom of the affected foot for 30 minutes every other day for three treatments. After each treatment the remaining solution was washed off and the exact amount of absorbed gallium nitrate was not measured. […] The plantar fasciitis has not returned for 10 years. The pain elimination from reduced inflammation is an indicator that the gallium ions bonded to the calcified structures at an inflammation site.

[3] = animal studies; cited from earlier work
[4] = Treatment of rheumatoid arthritis of the wrist by topical gallium nitrate solution (single patient); format: in vivo, human; details: about 100 mg
Method: Patient had persistent rheumatoid arthritis of the wrist for over six months and was treated with a single dose of ¾ ml of 14% gallium nitrate solution, about 100 mg, as a topical application for one hour. […] Again, the pain elimination from reduced inflammation is an indicator that the gallium ions bonded to the calcified structures at an inflammation site.

Compound: O=[N+]([O-])[O-].O=[N+]([O-])[O-].O=[N+]([O-])[O-].[Ga+3] [gallium nitrate]
- reduction of calcium excretion [1]: 70+18%
- pain relief after each treatment ([2]; 5 ml of 14% gallium nitrate solution on bottom of affected foot, 30 minutes, every other day, three treatments): complete relief of pain for several hours after each treatment
- time without return of plantar fasciitis ([2]; after three topical treatments): ≥ 10 years
- pain outcome after the third treatment ([2]; one week after third topical treatment): the pain disappeared completely one week later
- carbonyl oxidation and protein nitration [3]: reduction of carbonyl oxidation and protein nitration
- immediate pain relief ([4]; single topical dose of ¾ ml of 14% gallium nitrate solution, one hour): Some pain relief was noticed immediately
- arthritic pain after two months ([4]; single topical dose): the arthritic pain was not noticeable
- duration without arthritic pain in the wrist ([4]; single topical dose): has not experienced arthritic pain in the wrist for two years
